Experimental data from US20060210622A1, “Surface modified particulate compositions of biologically active substances” (Skyepharma Canada Inc., priority 1999, published 2006).
Converted amounts (≈) assume the structure as drawn.

Key:
physchem = format: physicochemical
Protocol: Solubility of biologically active substances, particularly drug substances in lipophilic and hydrophilic solvents. […] The solvents mentioned in the following table were evaluated. Solubilities, determined by high performance liquid chromatography (HPLC) assay of the dissolved drug in water and several non-aqueous vehicles, are given the following table in units of mg/mL. Low solubility of this drug in either water or organic solvents renders it suitable for formulating as a stable surface modified particulate dispersion in a non-aqueous carrier system.

[1] = Precipitation behavior of benzyl benzoate solution transferred to water, optical microscope under polarized light; format: physicochemical
Description: A portion of the ursodiol solution in benzyl benzoate was transferred to water and shaken. A mixture containing oily droplets resulted. […] This observation makes it possible to further prepare compositions of ursodiol utilizing appropriate solvent system and surface active agents so that micron-sized particle will be generated spontaneously upon addition of these compositions in aqueous media.

Row | Structure (SMILES) | Solubility in pharmaceutically acceptable lipophilic vehicles (physchem) | solubility (physchem; water, Solubility of Itraconazole) [µg/mL] | Size of crystalline particles observed in the mixture ([1]; benzyl benzoate solution in water, optical microscope, polarized light) | Precipitation on transfer of solution to water ([1]; benzyl benzoate solution transferred to water and shaken)
1 | CCC(C)n1ncn(-c2ccc(N3CCN(c4ccc(OCC5COC(Cn6cncn6)(c6ccc(Cl)cc6Cl)O5)cc4)CC3)cc2)c1=O (stereo not shown) [Itraconazole] | very poorly soluble | 10 (≈ 14.2 µM) | – | –
2 | C[C@H](CCC(=O)O)[C@H]1CC[C@H]2[C@@H]3[C@@H](O)C[C@@H]4C[C@H](O)CC[C@]4(C)[C@H]3CC[C@]12C [ursodiol] | – | – | below 10 micron | No precipitation was seen occurring
